Reference: paper PMC11820915, “Identification of HIV-1 Reverse Transcriptase-Associated Ribonuclease H Inhibitors Based on 2-Hydroxy-1,4-naphthoquinone Mannich Bases” (Molecules, 2025)
Values joined by “and” are separate entries in the source; they are usually repeats but may differ in a detail not shown here. Identical values can stand only once. Like-named read-outs stand apart in the source and are kept apart here.

Key:
[1] = target: T1, HIV-1 RT-associated RNase H (Human immunodeficiency virus type 1 group M subtype B, UniProt P03366); experiment: HIV-1 RT-associated RNase H inhibition assay; format: biochemical; design: 50 nM of HIV-1 RT; conditions: for IC50: 50 nM HIV-1 RT, 15 min at 37 °C, triplicate
Method: HIV-1 RT-associated RNase H inhibition assays were carried out in a 384 multiwell format, in 30 µL reaction volume containing 50 mM Tris–HCl buffer pH 7.8, 6 mM MgCl2, 1 mM dithiothreitol (DTT), 80 mM KCl, 0.25 µM hybrid RNA/DNA 5’-[…]-Fluorescin-3’ 5’-Dabcyl-[…]-3’ increasing concentrations of inhibitor, whose dilutions were made in DMSO, and 50 nM of HIV-1 RT. The reaction mixture was incubated for 15 min at 37 °C and products were measured with a multilabel counter plate reader VictorNivo5 (PerkinElmer, Waltham, MA, USA) equipped with filters for 490/528 nm. IC50, the concentration able to inhibit 50% of enzymatic activity, was calculated by non-linear regression curve fit using Prisme v9.0. All experiments were conducted in triplicate.

in vitro = conditions: African green monkey
SARS-CoV-2 = experiment: microbe, parasite or virus in culture; format: cell-based; conditions: for EC50: read-out: EC50 for viral replication inhibition; for Inhibitory activity against SARS-CoV-2 replication (in words): with CP-100356
HIV-1 [2] = format: cell-based; conditions: for Antiviral effect, reduction of GFP fluorescence expression (in words): MT4 cells, FACS
HIV-1 [3] = experiment: HIV-1 infectivity in HelaP4 cells (CPRG assay); format: cell-based; conditions: for Reduction of HIV-1 infectivity: at highest non-toxic concentration, 48 h
HelaP4 cells = experiment: Toxicity to HelaP4 cells (MTT assay); format: cell-based
Method: HelaP4 cells (10^4 cells/well) were infected with viruses (7.5 ng p24) in the presence of increasing concentration of compounds. Cells were incubated for 48 h before analysis. β-Galactosidase is under the control of the HIV-1 LTR. Infectivity is correlated with the number of infected cells. Cells were lysed for 10 min at 37 °C using 80 µL of lysis buffer (Na2HPO4 60 mM, NaH2PO4 60 mM, KCl 10 mM, MgSO4 10 mM, EDTA 25 mM, and NP-40 0.125%). After lysis, 170 µL of CPRG buffer (phosphate buffer 100 mM, pH 7.4, MgCl2 100 mM, and CPRG 20 mM) was added to each well. The plates were incubated at 37 °C until the color changed to dark red. Finally, a plate reader was used to read the absorbance at 572 nm. The MTT assay varies based on NAD(P)H-dependent cellular oxidoreductase enzymes of viable cells reducing the yellow tetrazolium salt MTT (3-(4,5-dimethylthiazol2-yl)-2,5-diphenyltetrazolium bromide). Spectrophotometric measurement can be used to quantify the insoluble purple formazan product that is produced by this reaction. An amount of 10 µL of MTT reagent (7.5 mg/mL in PBS, pH 7.4) was added to each well of the microtiter plate before incubating at 37 °C for 2 h. After 2 h of incubation, 100 µL of MTT lysis buffer (SDS 10%, HCl 0.01 N, pH 4.7) was added and the resulting optical density (OD) readings were measured at 572 nm.

HIV-1 viral DNA = experiment: qPCR of total HIV-1 viral DNA in infected MT4 cells; format: cell-based; conditions: 30 µM
Method: At the same time point, cells were harvested and washed with PBS before centrifugation to form pellets. DNA extraction was carried out using the QIAamp DNA Blood Mini Kit (Qiagen, Hilden, Germany). The procedure involved lysing the cells with AL buffer and Proteinase K to release the DNA. The lysate was then mixed with ethanol to facilitate DNA binding to a silica-based membrane in a spin column. The bound DNA was washed with buffers AW1 and AW2 to remove contaminants, and, finally, the DNA was eluted in 100 μL of water. DNA quantification was performed using quantitative polymerase chain reaction (qPCR) with the Roche LightCycler instrument. Accordingly, DNA quantification was conducted using real-time PCR (qPCR) on the same apparatus. This analysis utilized nucleic acid amounts corresponding to approximately 200,000 cells. The sequences of primers and probes employed for qPCR, aimed at absolute quantification of total HIV-1 viral DNA, have been previously described. The copy numbers of total HIV-1 DNA were ascertained from calibration curves derived from amplifying known quantities of cloned DNA with matching sequences.

MT4 cells = experiment: Toxicity ZombieAqua test in MT4 cells; format: cell-based; conditions: 30 µM, Zombie Aqua
Method: MT4 cells (10^5 cells/well) were infected with viruses (100 ng/well) in the presence of increasing concentration of lawsone compounds and the positive control efavirenz (Sigma-Aldrich, St. Louis, MO, USA). After 48 h, cells from each well were washed with PBS and centrifuged (1500 rpm, 5 min). Then, cells were incubated with Zombie Aqua™ (Biolegend, San Diego, CA, USA) dye solution for 15 min in the dark at room temperature to stain dead cells. After that, the cell pellets were washed one more time with PBS before analysis by flow cytometer. Acquisition was performed on a FACS Celesta (BD Biosciences) and analysis was performed using FlowJo v10 software. Cells were first gated on the FSC-H and FSC-A parameters to exclude doublet cells. Then, living cells were selected according to the Zombie Acqua staining (dead cells are stained whereas living cells are not). Finally, the percentage of HIV-1infected cells was measured by analyzing the percentage of GFP+ cells among living cells.

VEROE6-EGFP cells = conditions: read-out: CC50 cytotoxic concentration, in the presence of 2 µM CP-100356
[4] = target: T1, HIV-1 RT-associated RNase H; conditions: negative control; ref Min et al. [33]; cited from earlier work
[5] = read-out: IC50, HIV-1 RT-associated RNase H activity
[6] = IC50, HIV-1 RT-associated RNase H activity
[7] = Severe acute respiratory syndrome coronavirus 2, VEROE6-EGFP cells, in the presence of 2 µM CP-100356

CCCCCCCNC(C1=C(O)C(=O)c2ccccc2C1=O)c1ccccn1 (stereo not drawn) [Compound 1a]
IC50 [1, 5]: 31.2 ± 6.5 µM

CCCCCCCCCCCCNC(C1=C(O)C(=O)c2ccccc2C1=O)c1ccccn1 (stereo not drawn) [Compound 1b]
IC50 [1, 5]: 4 to 4.4 µM and 4.4 µM

CCCCCCCCCCCCCCNC(C1=C(O)C(=O)c2ccccc2C1=O)c1ccccn1 (stereo not drawn) [Compound 1c]
IC50 [1, 5]: 4 to 4.4 µM and 4 µM

CCCCCCCCCCCCCCCCNC(C1=C(O)C(=O)c2ccccc2C1=O)c1ccccn1 (stereo not drawn) [Compound 1d]
IC50 [1, 5]: 10.7 ± 4.1 µM

O=C1C(O)=C(C(NCc2ccccc2)c2ccccn2)C(=O)c2ccccc21 (stereo not drawn) [Compound 1e]
CC50 (in vitro): 35.3 ± 1.3 µM
IC50 [1, 6]: 2.8 to 3.1 µM and 3.1 µM
SI, selectivity index CC50/EC50 (SARS-CoV-2): 3.15
EC50 (SARS-CoV-2; [7]): 11.2 ± 2.1 µM
Inhibitory activity against SARS-CoV-2 replication (in words) (SARS-CoV-2; VEROE6-EGFP cells): moderate inhibitory activity

O=C1C(O)=C(C(NCc2ccc(F)c(F)c2)c2ccccn2)C(=O)c2ccccc21 (stereo not drawn) [Compound 1f]
IC50 [1, 5]: 17.4 ± 4.1 µM

CCCCCCCCCCCCNC(C1=C(O)C(=O)c2ccccc2C1=O)c1cccc(Br)n1 (stereo not drawn) [Compound 1g, 3-[(Dodecylamino)(6-bromo-2-pyridyl)methyl]-2-hydroxy-1,4-naphthoquinone]
IC50 [1, 5]: > 100 µM

CCCCCCCCCCCCCCNC(C1=C(O)C(=O)c2ccccc2C1=O)c1cccc(Br)n1 (stereo not drawn) [Compound 1h, 3-[(Tetradecylamino)(6-bromo-2-pyridyl)methyl]-2-hydroxy-1,4-naphthoquinone]
IC50 [1, 5]: > 100 µM

CCCCCCCCCCCCCCCCNC(C1=C(O)C(=O)c2ccccc2C1=O)c1cccc(Br)n1 (stereo not drawn) [Compound 1i, 3-[(Hexadecylamino)(6-bromo-2-pyridyl)methyl]-2-hydroxy-1,4-naphthoquinone]
IC50 [1, 5]: 78.6 ± 11.5 µM

O=C1C(O)=C(C(NCc2ccccc2)c2cccc(Br)n2)C(=O)c2ccccc21 (stereo not drawn) [Compound 1j, 3-[(Benzylamino)(6-bromo-2-pyridyl)methyl]-2-hydroxy-1,4-naphthoquinone]
IC50 [1, 5]: > 100 µM

CCCCCCCCCCCCCCNC(C1=C(O)C(=O)c2ccccc2C1=O)c1ccccc1 (stereo not drawn) [Compound 2a]
IC50 [1, 5]: 21.5 ± 0.9 µM

CCCCCCCCCCCCCCNC(C1=C(O)C(=O)c2ccccc2C1=O)c1ccccc1F (stereo not drawn) [Compound 2b, 3-[(Tetradecylamino)(2-fluorophenyl)methyl]-2-hydroxy-1,4-naphthoquinone]
Antiviral effect, reduction of GFP fluorescence expression (in words) (HIV-1 [2]): no or weak antiviral effects
IC50 [1, 5]: 15 ± 5.1 µM
Reduction of HIV-1 infectivity (HIV-1 [3]): 75%

CCCCCCCCCCCCCCNC(C1=C(O)C(=O)c2ccccc2C1=O)c1ccccc1Cl (stereo not drawn) [Compound 2c, 3-[(Tetradecylamino)(2-chlorophenyl)methyl]-2-hydroxy-1,4-naphthoquinone]
Antiviral effect, reduction of GFP fluorescence expression (in words) (HIV-1 [2]): no or weak antiviral effects
IC50 [1, 5]: 7.3 ± 4.7 µM
Reduction of HIV-1 infectivity (HIV-1 [3]): 46%

CCCCCCCCCCCCNC(C1=C(O)C(=O)c2ccccc2C1=O)c1ccccc1O (stereo not drawn) [Compound 2d]
Cytotoxicity (in words) (HelaP4 cells): displayed cytotoxicity
IC50 [1, 6]: 17.6 ± 3.8 µM

CCCCCCCCCCCCCCNC(C1=C(O)C(=O)c2ccccc2C1=O)c1ccccc1O (stereo not drawn) [Compound 2e, 3-[(Tetradecylamino)(2-hydroxyphenyl)methyl]-2-hydroxy-1,4-naphthoquinone]
IC50 [1, 5]: 8.5 ± 1.6 µM
Antiviral activity against HIV-1 (in words) (HIV-1 [3]): no antiviral activity

CCCCCCCCCCCCCCCCNC(C1=C(O)C(=O)c2ccccc2C1=O)c1ccccc1O (stereo not drawn) [Compound 2f]
Cytotoxicity (in words) (HelaP4 cells): displayed cytotoxicity
IC50 [1, 6]: 7 ± 0.9 µM

O=C1C(O)=C(C(NCc2ccccc2)c2ccccc2O)C(=O)c2ccccc21 (stereo not drawn) [Compound 2g]
HIV-1 RNase H inhibitory activity (in words) [1]: inactive
IC50 [1, 5]: > 100 µM

O=C1C(O)=C(C(Nc2ccccn2)c2ccccc2O)C(=O)c2ccccc21 (stereo not drawn) [Compound 2h]
HIV-1 RNase H inhibitory activity (in words) [1]: moderate activity
IC50 [1, 5]: 20.8 ± 0.2 µM

CCCCCCCCCCCCNC(C1=C(O)C(=O)c2ccccc2C1=O)c1cc(Cl)cc(Cl)c1O (stereo not drawn) [Compound 2i]
Antiviral effect, reduction of GFP fluorescence expression (in words) (HIV-1 [2]): no or weak antiviral effects
IC50 [1, 5]: 4.7 ± 1.6 µM
Reduction of HIV-1 infectivity (HIV-1 [3]): 65%

CCCCCCCCCCCCCCNC(C1=C(O)C(=O)c2ccccc2C1=O)c1cc(Cl)cc(Cl)c1O (stereo not drawn) [Compound 2j, 3-[(Tetradecylamino)(3,5-dichloro-2-hydroxyphenyl)methyl]-2-hydroxy-1,4-naphthoquinone]
IC50 [1, 5]: 43.7 ± 3.5 µM

CCCCCCCCCCCCCCCCNC(C1=C(O)C(=O)c2ccccc2C1=O)c1cc(Cl)cc(Cl)c1O (stereo not drawn) [Compound 2k]
Reduction of percentage of GFP-positive cells (HIV-1 [2]): half
Reduction of viral DNA levels (HIV-1 viral DNA): over 50%
Toxicity (in words) (MT4 cells): without exhibiting any toxicity
CC50 (in vitro): 41.2 ± 1.3 µM
IC50 [1, 6]: 2.8 to 3.1 µM and 2.8 µM
EC50 (SARS-CoV-2; [7]): > 41.2 µM
Inhibitory activity against SARS-CoV-2 replication (in words) (SARS-CoV-2; VEROE6-EGFP cells): inactive

O=C1C(O)=C(C(NCc2ccccc2)c2cc(Cl)cc(Cl)c2O)C(=O)c2ccccc21 (stereo not drawn) [Compound 2l, 3-[(Benzylamino)(3,5-dichloro-2-hydroxyphenyl)methyl]-2-hydroxy-1,4-naphthoquinone]
Antiviral effect, reduction of GFP fluorescence expression (in words) (HIV-1 [2]): no or weak antiviral effects
HIV-1 RNase H inhibitory activity (in words) [1]: moderate activities
IC50 [1, 5]: 12.7 ± 3.4 µM
Reduction of HIV-1 infectivity (HIV-1 [3]): 48%

CCCCCCCCCCCCNC(C1=C(O)C(=O)c2ccccc2C1=O)c1cc(Br)cc(Br)c1O (stereo not drawn) [Compound 2m]
IC50 [1, 5]: 7.1 ± 1.1 µM
Antiviral activity against HIV-1 (in words) (HIV-1 [3]): no antiviral activity

CCCCCCCCCCCCCCNC(C1=C(O)C(=O)c2ccccc2C1=O)c1cc(Br)cc(Br)c1O (stereo not drawn) [Compound 2n, 3-[(Tetradecylamino)(3,5-dibromo-2-hydroxyphenyl)methyl]-2-hydroxy-1,4-naphthoquinone]
IC50 [1, 5]: 105 ± 10.6 µM

CCCCCCCCCCCCCCCCNC(C1=C(O)C(=O)c2ccccc2C1=O)c1cc(Br)cc(Br)c1O (stereo not drawn) [Compound 2o]
IC50 [1, 5]: 32.5 ± 10.5 µM

O=C1C(O)=C(C(NCc2ccccc2)c2cc(Br)cc(Br)c2O)C(=O)c2ccccc21 (stereo not drawn) [Compound 2p, 3-[(Benzylamino)(3,5-dibromo-2-hydroxyphenyl)methyl]-2-hydroxy-1,4-naphthoquinone]
Antiviral effect, reduction of GFP fluorescence expression (in words) (HIV-1 [2]): no or weak antiviral effects
HIV-1 RNase H inhibitory activity (in words) [1]: moderate activities
IC50 [1, 5]: 19.6 ± 3.4 µM
Reduction of HIV-1 infectivity (HIV-1 [3]): 70%

CC(C)C[C@H](NC(=O)OCc1ccccc1)C(=O)N[C@@H](CC1CCNC1=O)C(O)S(=O)(=O)O (stereo partly drawn) [GC-376, reference compound]
CC50 (VEROE6-EGFP cells): > 100 µM
EC50 (SARS-CoV-2): 0.84 ± 0.08 µM

O=C1C=C(O)C(=O)c2ccccc21 [Lawsone, 2-Hydroxy-1,4-naphthoquinone]
IC50, HIV-1 RT-associated RNase H activity [4]: >100 µM
